Some test systems named below: 786-0 renal; COLO 205 colon; HCT-116 colon; HL-60(TB) leukemia; HOP-62 NSCLC; IGROV1 ovarian; M14 melanoma; OVCAR-5 ovarian; SNB-75 CNS; SR leukemia.
Holding throughout (assay): DTP human tumour cell line panel, 48 h

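Grown in 96-well plates, cells were treated for 48 hours with each compound at five concentrations. Insufficient inhibition: endpoint recorded as highest concentration tested. GI50: concentration for 50% inhibition of growth. Definition used: TGI = concentration required for complete inhibition of growth.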

For the molecule `COc1ncnc2c1ncn2C/C(Br)=C(\Br)CCl`, the GI50 with 786-0 renal is 3.38 µM; in the test on COLO 205 colon, 1730 nM; in the test on HCT-116 colon, 1730 nM; with HL-60(TB) leukemia it was 2030 nM; with HOP-62 NSCLC it was 3.9 µM; with IGROV1 ovarian, 1770 nM. In addition, the GI50 in the test with M14 melanoma was 1820 nM; with OVCAR-5 ovarian, 3.83 µM; with SNB-75 CNS, 2010 nM; with SR leukemia, 2730 nM. In addition, the TGI stood at 11.5 µM with 786-0 renal; 3.18 µM in the test on COLO 205 colon; 3.49 µM with HCT-116 colon; 6.32 µM with HL-60(TB) leukemia; 14.1 µM in the test on HOP-62 NSCLC; 4.86 µM in the test on IGROV1 ovarian. The TGI in the test with M14 melanoma is 4.14 µM; in the test on OVCAR-5 ovarian it was 15.2 µM; with SNB-75 CNS, 8.57 µM; in the test on SR leukemia it was 12.2 µM.

As for `CN1CCN(c2ccc3nc(-c4ccc5nc(-c6ccc(C(F)(F)F)cc6)[nH]c5c4)[nH]c3c2)CC1`, the GI50 in the test with 786-0 renal was 3.3 µM; in the test with COLO 205 colon, 1370 nM; in the test with HCT-116 colon it was 1280 nM; in the test on HL-60(TB) leukemia, 1470 nM; in the test with HOP-62 NSCLC, 1.63 µM; with IGROV1 ovarian it was 6130 nM. Besides, the GI50 in the test with M14 melanoma was 1360 nM; in the test with OVCAR-5 ovarian, 2.68 µM; with SNB-75 CNS it was 1870 nM; with SR leukemia, 1700 nM. The TGI was found to be 12.7 µM in the test on 786-0 renal; 2.93 µM in the test with COLO 205 colon; 2.6 µM with HCT-116 colon; 3.45 µM in the test with HL-60(TB) leukemia; 3.42 µM in the test on HOP-62 NSCLC; 21.7 µM with IGROV1 ovarian. Moreover, the TGI with M14 melanoma was 2.89 µM; in the test with OVCAR-5 ovarian, 6.58 µM; in the test on SNB-75 CNS, 9.97 µM; with SR leukemia it was 5.11 µM.

`CC(C)NCCCNC1=C(Cl)C(=O)c2ccccc2C1=O`: the GI50 in the test on 786-0 renal is 18.1 µM; in the test with COLO 205 colon, 1870 nM; with HCT-116 colon, 2120 nM; in the test with HL-60(TB) leukemia, 2200 nM; in the test on HOP-62 NSCLC it was 13.8 µM; in the test on IGROV1 ovarian, 2330 nM. Besides, the GI50 in the test with M14 melanoma is 1860 nM; in the test on OVCAR-5 ovarian it was 14.3 µM; in the test with SNB-75 CNS it was 10300 nM; in the test with SR leukemia, 2270 nM. The TGI in the test with 786-0 renal came out at 33.5 µM; in the test with COLO 205 colon, 3.56 µM; with HCT-116 colon it was 5.28 µM; in the test on HL-60(TB) leukemia it was 5.03 µM; in the test with HOP-62 NSCLC it was 27.4 µM; in the test on IGROV1 ovarian, 5.16 µM. The TGI in the test with M14 melanoma is 3.49 µM; with OVCAR-5 ovarian, 31.1 µM; with SNB-75 CNS it was 22.4 µM; in the test with SR leukemia it was 6.08 µM.

On to `O=C(/C=C/c1ccccc1)c1ccc(O)c(CN2CCN(c3cc4c(cc3F)c(=O)c(C(=O)O)cn4C3CC3)CC2)c1`, for which the GI50 in the test with 786-0 renal is 0.961 µM; with COLO 205 colon, 3860 nM; with HCT-116 colon, 430 nM; in the test on HL-60(TB) leukemia it was 770 nM; in the test on HOP-62 NSCLC, 3.22 µM; in the test on IGROV1 ovarian, 1360 nM. In addition, the GI50 in the test on M14 melanoma was 1000 nM; in the test on OVCAR-5 ovarian it was 3.91 µM; in the test with SNB-75 CNS, 378 nM; in the test on SR leukemia, 807 nM. Also, the TGI in the test on 786-0 renal is over 100 µM; with COLO 205 colon, 74.5 µM; in the test on HCT-116 colon, over 100 µM; in the test with HL-60(TB) leukemia, over 100 µM; in the test on HOP-62 NSCLC it was over 100 µM; in the test on IGROV1 ovarian, 36.6 µM. Also, the TGI in the test with M14 melanoma was over 100 µM; in the test on OVCAR-5 ovarian it was over 100 µM; with SNB-75 CNS, 9.78 µM; in the test with SR leukemia it was over 100 µM.

With `Cc1cc(C)c(S(=O)(=O)Oc2ccccc2[N+](=O)[O-])c(C)c1`, the GI50 was 5.58 µM in the test on 786-0 renal; 2900 nM in the test on COLO 205 colon; 1440 nM with HCT-116 colon; 367 nM with HL-60(TB) leukemia; 3.33 µM with HOP-62 NSCLC; 2680 nM in the test with IGROV1 ovarian. The GI50 in the test on M14 melanoma is 976 nM; in the test on OVCAR-5 ovarian, 5.67 µM; in the test on SNB-75 CNS it was 1820 nM; in the test on SR leukemia, 443 nM. In addition, the TGI was over 100 µM in the test on 786-0 renal; 12.9 µM in the test with COLO 205 colon; over 100 µM with HCT-116 colon; 2.5 µM in the test with HL-60(TB) leukemia; over 100 µM in the test with HOP-62 NSCLC; over 100 µM with IGROV1 ovarian. Also, the TGI with M14 melanoma was over 26.6 µM; in the test on OVCAR-5 ovarian it was over 100 µM; in the test on SNB-75 CNS it was 7.04 µM; in the test with SR leukemia it was over 100 µM.

What is called GI50 is the concentration at which growth is held to half of that of the control. By TGI is commonly meant the concentration giving total growth inhibition. A higher TGI goes with less potent growth arrest.

The values are drawn from PubChem BioAssay (NCI).
